The target of the assay is T1, ALK (baculovirus expressed human ALK kinase domain F1098-K1410) (Homo sapiens, UniProt Q9UM73).
T1 construct: human ALK kinase domain F1098-K1410; made in house
As to the kind of experiment: biochemical. Particulars: 1 μM ATP, 4 μM poly-AEKY, 12 nM ALK, 2 hours at ambient temperature; read-out: ALK IC50. The gist of the method: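 Inhibitors were tested at 10 concentrations, and IC50 was derived from a sigmoidal fit (Min, Max, Hill slope). Kinase activity was measured as percent ATP left after a 2 h reaction at room temperature, detected by luciferase-luciferin chemiluminescence. The ATP level was set close to KM for the ALK kinase domain F1098-K1410.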

T1 sequence (Q9UM73 1098-1410): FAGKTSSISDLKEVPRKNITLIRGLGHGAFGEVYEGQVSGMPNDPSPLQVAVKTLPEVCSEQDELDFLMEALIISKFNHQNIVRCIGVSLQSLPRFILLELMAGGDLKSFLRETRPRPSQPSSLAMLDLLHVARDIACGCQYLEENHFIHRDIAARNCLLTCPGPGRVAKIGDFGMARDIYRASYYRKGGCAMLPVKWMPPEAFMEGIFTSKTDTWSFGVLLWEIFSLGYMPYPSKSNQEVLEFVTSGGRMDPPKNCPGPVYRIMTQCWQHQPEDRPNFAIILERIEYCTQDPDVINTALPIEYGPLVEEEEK

Usually IC50 stands for the midpoint of a concentration-inhibition curve. Take `O=C(COc1ccc(OC(F)(F)F)cc1)NCc1nc(C(=O)N[C@@H]2CCCc3ccccc32)cs1` [Entry 165, N-[(1R)-1,2,3,4-tetrahydronaphthalen-1-yl]-2-({[({4-[(trifluoromethyl)oxy]phenyl}oxy)acetyl]amino}methyl)-1,3-thiazole-4-carboxamide]: the IC50 was in the range of 50 to 500 nM.

Take `Cc1cc(Cl)cc(Cl)c1CNC(=O)c1csc(CNC(=O)COc2ccc(OC(F)(F)F)cc2)n1` [Entry 166, N-[(2,4-dichloro-6-methylphenyl)methyl]-2-({[({4-[(trifluoromethyl)oxy]phenyl}oxy)acetyl]amino}methyl)-1,3-thiazole-4-carboxamide]: the IC50 is 50 to 500 nM.

For the compound `O=C(COc1ccc(OC(F)(F)F)cc1)NCc1nc(C(=O)NC(c2ccccc2)c2ccccc2)cs1` [Entry 167, N-(diphenylmethyl)-2-({[({4-[(trifluoromethyl)oxy]phenyl}oxy)acetyl]amino}methyl)-1,3-thiazole-4-carboxamide], the IC50 lay in the range of 50 to 500 nM.

Take `Cc1ccc(NC(=O)NCc2nc(C(=O)NCCc3cccc(Cl)c3)cs2)cc1` [Entry 168, N-[2-(3-chlorophenyl)ethyl]-2-[({[(4-methylphenyl)amino]carbonyl}amino)methyl]-1,3-thiazole-4-carboxamide]: the IC50 fell in the range of 50 to 500 nM.

On to `O=C(Cc1ccc2ccccc2c1)NCc1nc(C(=O)NCCc2ccccc2F)cs1` [Entry 169, N-[2-(2-fluorophenyl)ethyl]-2-{[(naphthalen-2-ylacetyl)amino]methyl}-1,3-thiazole-4-carboxamide], for which the IC50 is 50 to 500 nM.

`Cc1ccc(CNC(=O)c2csc(CNC(=O)COc3ccc(OC(F)(F)F)cc3)n2)cc1` [Entry 170, N-[(4-methylphenyl)methyl]-2-({[({4-[(trifluoromethyl)oxy]phenyl}oxy)acetyl]amino}methyl)-1,3-thiazole-4-carboxamide]: the IC50 was 50 to 500 nM.

In the case of `CCC(CC)NC(=O)c1csc(CNC(=O)COc2ccc(OC(F)(F)F)cc2)n1` [Entry 171, N-(1-ethylpropyl)-2-({[({4-[(trifluoromethyl)oxy]phenyl}oxy)acetyl]amino}methyl)-1,3-thiazole-4-carboxamide], the IC50 was 50 to 500 nM.

On to `O=C(COc1ccc(OC(F)(F)F)cc1)NCc1nc(C(=O)NCC2CCCCC2)cs1` [Entry 172, N-(cyclohexylmethyl)-2-({[({4-[(trifluoromethyl)oxy]phenyl}oxy)acetyl]amino}methyl)-1,3-thiazole-4-carboxamide], for which the IC50 was 50 to 500 nM.

Take `CSc1ccc(NC(=O)NCc2nc(C(=O)NCCc3cccc(Cl)c3)cs2)cc1` [Entry 173, N-[2-(3-chlorophenyl)ethyl]-2-{[({[4-(methylthio)phenyl]amino}carbonyl)amino]methyl}-1,3-thiazole-4-carboxamide]: the IC50 fell in the range of 50 to 500 nM.

Consider `O=C(COc1ccc(OC(F)(F)F)cc1)NCc1nc(C(=O)NCc2ccc(F)c(C(F)(F)F)c2)cs1` [Entry 174, N-{[4-fluoro-3-(trifluoromethyl)phenyl]methyl}-2-({[({4-[(trifluoromethyl)oxy]phenyl}oxy)acetyl]amino}methyl)-1,3-thiazole-4-carboxamide], for which the IC50 was 50 to 500 nM.

Take `CC(C)(C)CCNC(=O)c1csc(CNC(=O)COc2ccc(OC(F)(F)F)cc2)n1` [Entry 175, N-(3,3-dimethylbutyl)-2-({[({4-[(trifluoromethyl)oxy]phenyl}oxy)acetyl]amino}methyl)-1,3-thiazole-4-carboxamide]: the IC50 fell in the range of 50 to 500 nM.

For the compound `O=C(COc1ccc(OC(F)(F)F)cc1)NCc1nc(C(=O)NCCC2=CCCCC2)co1` [Entry 176, N-(2-cyclohex-1-en-1-ylethyl)-2-({[({4-[(trifluoromethyl)oxy]phenyl}oxy)acetyl]amino}methyl)-1,3-oxazole-4-carboxamide], the IC50 fell in the range of 50 to 500 nM.

For `CCCCNC(=O)c1csc(CNC(=O)COc2ccc(OC(F)(F)F)cc2)n1` [Entry 177, N-butyl-2-({[({4-[(trifluoromethyl)oxy]phenyl}oxy)acetyl]amino}methyl)-1,3-thiazole-4-carboxamide], the IC50 was in the range of 50 to 500 nM.

Take `COc1ccc(CNC(=O)c2csc(CNC(=O)COc3ccc(OC(F)(F)F)cc3)n2)cc1` [Entry 178, N-{[4-(methyloxy)phenyl]methyl}-2-({[({4-[(trifluoromethyl)oxy]phenyl}oxy)acetyl]amino}methyl)-1,3-thiazole-4-carboxamide]: the IC50 lay within 50 to 500 nM.

With `CCCCCC(C)NC(=O)c1csc(CNC(=O)COc2ccc(OC(F)(F)F)cc2)n1` (stereo not shown) [Entry 179, N-(1-methylhexyl)-2-({[({4-[(trifluoromethyl)oxy]phenyl}oxy)acetyl]amino}methyl)-1,3-thiazole-4-carboxamide], the half-inhibitory concentration (IC50) is 50 to 500 nM.

Take `C#CC1(NC(=O)c2csc(CNC(=O)COc3ccc(OC(F)(F)F)cc3)n2)CCCCC1` [Entry 180, N-(1-ethynylcyclohexyl)-2-({[({4-[(trifluoromethyl)oxy]phenyl}oxy)acetyl]amino}methyl)-1,3-thiazole-4-carboxamide]: the IC50 is 50 to 500 nM.

For `O=C(COc1ccc(OC(F)(F)F)cc1)NCc1nc(C(=O)NCCc2cccc(C(F)(F)F)c2)co1` [Entry 181, 2-({[({4-[(trifluoromethyl)oxy]phenyl}oxy)acetyl]amino}methyl)-N-{2-[3-(trifluoromethyl)phenyl]ethyl}-1,3-oxazole-4-carboxamide], the IC50 fell in the range of 50 to 500 nM.

With `O=C(COc1ccc(OC(F)(F)F)cc1)NCc1nc(C(=O)NC2CCc3ccccc32)cs1` (stereo not shown) [Entry 182, N-(2,3-dihydro-1H-inden-1-yl)-2-({[({4-[(trifluoromethyl)oxy]phenyl}oxy)acetyl]amino}methyl)-1,3-thiazole-4-carboxamide], the IC50 was in the range of 50 to 500 nM.

Consider `COc1ccc([C@H](C)NC(=O)c2csc(CNC(=O)COc3ccc(OC(F)(F)F)cc3)n2)cc1` [Entry 183, N-{(1S)-1-[4-(methyloxy)phenyl]ethyl}-2-({[({4-[(trifluoromethyl)oxy]phenyl}oxy)acetyl]amino}methyl)-1,3-thiazole-4-carboxamide], for which the IC50 was 50 to 500 nM.

Take `CCOc1ccc(NC(=O)NCc2nc(C(=O)NCCc3cccc(Cl)c3)cs2)cc1` [Entry 184, N-[2-(3-chlorophenyl)ethyl]-2-{[({[4-(ethyloxy)phenyl]amino}carbonyl)amino]methyl}-1,3-thiazole-4-carboxamide]: the IC50 lay within 50 to 500 nM.

As for `O=C(COc1ccc(OC(F)(F)F)cc1)NCc1nc(C(=O)NCc2ccc(F)c(F)c2)cs1` [Entry 185, N-[(3,4-difluorophenyl)methyl]-2-({[({4-[(trifluoromethyl)oxy]phenyl}oxy)acetyl]amino}methyl)-1,3-thiazole-4-carboxamide], the IC50 fell in the range of 50 to 500 nM.

Turning to `CSc1ccccc1CNC(=O)c1coc(CNC(=O)COc2ccc(OC(F)(F)F)cc2)n1` [Entry 186, N-{[2-(methylthio)phenyl]methyl}-2-({[({4-[(trifluoromethyl)oxy]phenyl}oxy)acetyl]amino}methyl)-1,3-oxazole-4-carboxamide], the IC50 lay within 50 to 500 nM.

Take `COc1ccc(CNC(=O)c2csc(CNC(=O)COc3ccc(OC(F)(F)F)cc3)n2)cc1OC` [Entry 187, N-{[3,4-bis(methyloxy)phenyl]methyl}-2-({[({4-[(trifluoromethyl)oxy]phenyl}oxy)acetyl]amino}methyl)-1,3-thiazole-4-carboxamide]: the IC50 is 50 to 500 nM.

Turning to `NC(=O)[C@H](Cc1ccccc1)NC(=O)c1csc(CNC(=O)COc2ccc(OC(F)(F)F)cc2)n1` [Entry 188, Nalpha-{[2-({[({4-[(trifluoromethyl)oxy]phenyl}oxy)acetyl]amino}methyl)-1,3-thiazol-4-yl]carbonyl}-L-phenylalaninamide], the IC50 fell in the range of 50 to 500 nM.

With `CC(C)CCCCCCNC(=O)c1csc(CNC(=O)COc2ccc(OC(F)(F)F)cc2)n1` [Entry 189, N-(7-methyloctyl)-2-({[({4-[(trifluoromethyl)oxy]phenyl}oxy)acetyl]amino}methyl)-1,3-thiazole-4-carboxamide], the IC50 fell in the range of 50 to 500 nM.

As for `O=C(COc1ccc(OC(F)(F)F)cc1)NCc1nc(C(=O)NCc2ccccn2)cs1` [Entry 190, N-(pyridin-2-ylmethyl)-2-({[({4-[(trifluoromethyl)oxy]phenyl}oxy)acetyl]amino}methyl)-1,3-thiazole-4-carboxamide], the half-inhibitory concentration (IC50) was in the range of 50 to 500 nM.

Turning to `O=C(COc1ccc(OC(F)(F)F)cc1)NCc1nc(C(=O)NCc2ccc(F)c(Cl)c2)cs1` [Entry 191, N-[(3-chloro-4-fluorophenyl)methyl]-2-({[({4-[(trifluoromethyl)oxy]phenyl}oxy)acetyl]amino}methyl)-1,3-thiazole-4-carboxamide], the 50% inhibitory concentration (IC50) is 50 to 500 nM.

As for `COc1ccccc1CNC(=O)c1csc(CNC(=O)Cc2ccc(C(C)C)cc2)n1` [Entry 192, 2-[({[4-(1-methylethyl)phenyl]acetyl}amino)methyl]-N-{[2-(methyloxy)phenyl]methyl}-1,3-thiazole-4-carboxamide], the IC50 fell in the range of 50 to 500 nM.

Regarding `CCCCCCN(C)C(=O)c1csc(CNC(=O)COc2ccc(OC(F)(F)F)cc2)n1` [Entry 193, N-hexyl-N-methyl-2-({[({4-[(trifluoromethyl)oxy]phenyl}oxy)acetyl]amino}methyl)-1,3-thiazole-4-carboxamide], the half-inhibitory concentration (IC50) lay within 50 to 500 nM.

Take `O=C(COc1ccc(OC(F)(F)F)cc1)NCc1nc(C(=O)NCc2ccccc2)cs1` [Entry 194, N-(phenylmethyl)-2-({[({4-[(trifluoromethyl)oxy]phenyl}oxy)acetyl]amino}methyl)-1,3-thiazole-4-carboxamide]: the IC50 is 50 to 500 nM.

In the case of `CSCCNC(=O)c1csc(CNC(=O)COc2ccc(OC(F)(F)F)cc2)n1` [Entry 195, N-[2-(methylthio)ethyl]-2-({[({4-[(trifluoromethyl)oxy]phenyl}oxy)acetyl]amino}methyl)-1,3-thiazole-4-carboxamide], the IC50 is 50 to 500 nM.
